Patent US9226939B2, “Histone inhibition” (THE AUSTRALIAN NATIONAL UNIVERSITY, priority 2010, dated 2016)

How the values were obtained:
[1] = system: calf thymus histones; assay: Inhibition of histone killing of HMEC (flow cytometry, Calcein-AM/PI); format: cell-based; conditions: for inhibitory activity on histone toxicity (in words) / % histone killing ± SEM: HMEC; for inhibitory activity on histone toxicity (in words): Table 1 discussion; for % histone killing ± SEM: compounds at 50 μg/ml, calf thymus histones 400 μg/ml; for inhibition of cytotoxic effects of histones for HMEC: histones 400 μg/ml
Procedure: (§1) Different concentrations of calf thymus histones were initially assessed for their toxicity for human umbilical vein endothelial cells (HUVEC) and human microvascular endothelial cells (HMEC). Suspensions of HUVEC/HMEC in Medium199/20% fetal calf serum (FCS) were dispensed into each well of a 96 well plate (1×10^5 cells/well in 50 μl of medium). Calf thymus histones (50 μl/well in M199/20% FCS) were then added to give a final concentration of 100-800 μg/ml followed by 25 μl/well of Calcein-AM in PBS (final concentration 0.04 μM) and 25 propidium iodide (PI) in PBS (final concentration 2.5 μg/ml). Each 96 well plate was incubated at 37° C. for 60 min in a 5% CO2 incubator, placed on ice and the contents of each well analysed by flow cytometry for viable and dead cells. Viable cells were detected as Calcein-AM-bright and PI-dim and dead cells as Calcein-AM-dim and PI-bright. FIG. 1 depicts a typical viability assay comparing HUVEC cultured alone (9.15% dead, 78.6% viable) with HUVEC cultured for 60 min with 200 μg/ml of calf thymus histones (50.4% dead, 35.6% viable). The toxicity of calf thymus histones for HUVEC and HMEC is shown in detail in FIG. 2, with histone toxicity for HUVEC (FIG. 2A) and HMEC (FIG. 2B) being highly concentration dependent, although HMEC were more resistant to histone toxicity than HUVEC. Thus, at 100 μg/ml histones killed 15-20% of HUVEC but had no effect on HMEC viability, whereas at 800 μg/ml histones killed >85% of HUVEC and ˜55% of HMEC (FIG. 1). In subsequent inhibition experiments calf thymus histones were used at 200 μg/ml for HUVEC and 400 μg/ml for HMEC, these concentrations resulting in ˜50% killing of both populations of endothelial cells.
In inhibition experiments the inhibitor (final concentration ranging from 1.6-100 μg/ml) was mixed with calf thymus histones (final concentration 200 or 400 μg/ml) prior to the addition of HUVEC/HMEC, Calcein-AM and PI to each well.
Using HMEC as the endothelial cell target similar inhibitory effects of maltotriose sulfate (FIG. 6) and the other sulfated oligosaccharides (Table 1) on histone toxicity was observed. In fact, a more detailed analysis of the inhibitory activity of a range of polyanions on histone toxicity, using HMEC as the target endothelial cell, is shown in Table 1.

[2] = system: lipopolysaccharide (LPS)-induced mouse model of sepsis; assay: LPS-induced mouse model of sepsis; format: in vivo
Procedure: A study was conducted to assess in vivo efficacy of test articles 1 (maltotriose sulfate; TA1), 2 (cellobiose sulfate; TA2), and 3 (heparin; TA3) in a lipopolysaccharide (LPS)-induced mouse model of sepsis. Endotoxemia was induced by intraperitoneal (i.p.) injection with LPS on day 1. Test articles were co-administered i.p. on day 1, and then dosed daily i.p. for an additional 2 days.

[3] = system: radiolabelled histones; assay: Blockade of radiolabelled histone accumulation in rabbit lungs (gamma scintigraphy); format: in vivo; conditions: 15 mg/kg intravenously 15 minutes before radiolabel
[4] = system: calf thymus histones; assay: Inhibition of histone cytotoxicity for HUVEC (flow cytometry, Calcein-AM/PI); format: cell-based; conditions: inhibitor 1.6-100 μg/ml; histones 200 μg/ml
Procedure: as §1, with “Thus, at 100 μg/ml histones killed 15-20% of HUVEC but had no effect on HMEC viability, whereas at 800 μg/ml histones killed >85% of HUVEC and ˜55% of HMEC (FIG. 1). In subsequent inhibition experiments calf thymus histones were used at 200 μg/ml for HUVEC and 400 μg/ml for HMEC, these concentrations resulting in ˜50% killing of both populations of endothelial cells.” left out

[5] = 15 mg/kg i.p. daily x3, LPS 50 mg/kg
[6] = 15 mg/kg i.p. daily x3, with LPS
[7] = 100 mg/kg i.p. daily x3, with LPS

O=S(=O)(O)OC[C@H]1O[C@@](COS(=O)(=O)O)(O[C@H]2O[C@H](COS(=O)(=O)O)[C@@H](OS(=O)(=O)O)[C@H](OS(=O)(=O)O)[C@H]2OS(=O)(=O)O)[C@@H](OS(=O)(=O)O)[C@@H]1OS(=O)(=O)O [Sucrose octasulfate, reference compound]
inhibitory activity on histone toxicity (in words) [1]: weaker inhibitors
% histone killing ± SEM [1]: 43.5 ± 4.0%

Carboxylated β-cyclodextrin
inhibitory activity on histone toxicity (in words) [1]: not
% histone killing ± SEM [1]: 105.8 ± 19.9%

Heparin [reference compound]
survival (Kaplan-Meier) ([2]; 1.1 mg/kg i.p. daily x3, LPS 50 mg/kg): no apparent change in the survival plot compared to the control
tolerability ([2]; 1.1 mg/kg i.p. daily x3, with LPS): well tolerated
inhibitory activity on histone toxicity (in words) [1]: active

Isomaltotriose sulfate [Isomaltotriose SO4]
% histone killing ± SEM [1]: 49.5 ± 5.4%

Propanyl bis-gluconamide SO4
inhibitory activity on histone toxicity (in words) [1]: some inhibitory activity
% histone killing ± SEM [1]: 27.8 ± 1.5%

cellobiose sulfate [Cellobiose SO4]
survival (Kaplan-Meier) [2, 5]: extended survival
tolerability [2, 6]: well tolerated
survival (Kaplan-Meier) ([2]; 100 mg/kg i.p. daily x3, LPS 50 mg/kg): extended survival
tolerability [2, 7]: well tolerated
inhibitory activity on histone toxicity (in words) [1]: potent inhibitor
accumulation of radiolabelled histones in the lung [3]: blocked

low molecular weight heparin [reference compound]
inhibitory activity on histone toxicity (in words) [1]: active

maltose sulfate [Maltose SO4]
inhibitory activity on histone cytotoxicity for HUVEC (in words) [4]: weak inhibitor
inhibitory activity on histone toxicity (in words) [1]: weaker inhibitors
% histone killing ± SEM [1]: 77.1 ± 4.7%

maltotriose sulfate [Maltotriose SO4]
survival (Kaplan-Meier) [2, 5]: extended survival
tolerability [2, 6]: better tolerated
tolerability [2, 7]: appeared to produce some toxicity (cluster of deaths) after the third dose
inhibitory activity on histone toxicity (in words) [1]: more active than sulfated isomaltotriose
inhibition of cytotoxic effects of histones for HMEC ([1]; maltotriose sulfate 25 μg/ml): totally
inhibition of cytotoxic effects of histones for HMEC ([1]; maltotriose sulfate 100 μg/ml): partially

panose sulfate [Panose SO4]
inhibitory activity on histone toxicity (in words) [1]: more active than sulfated isomaltotriose

raffinose sulfate [Raffinose SO4]
inhibitory activity on histone toxicity (in words) [1]: more active than sulfated isomaltotriose

sodium maltohexaose sulfate
accumulation of radiolabelled histones in the lung [3]: blocked

sodium maltotetraose sulfate
accumulation of radiolabelled histones in the lung [3]: blocked

β-cyclodextrin sulfate [β-cyclodextrin SO4]
inhibitory activity on histone cytotoxicity for HUVEC (in words) [4]: almost as active as the linear maltotriose sulfate and maltopentaose sulfate
inhibitory activity on histone toxicity (in words) [1]: active
